Molecules are shown by their SMILES.

The record followed here is US6737383B1, “Herbicidal oxadiazolidines” (priority 1999, dated 2004).

The test system of one assay is giant foxtail. Kind of assay: Test B pre/postemergence giant foxtail. Format: in vivo, Setaria faberii. The method in brief: (§1)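 Response is a visual 0-to-10 score relative to untreated plants, where 0 means no effect and 10 means complete control, taken twelve to sixteen days after application. Treatments went onto soil at planting and onto foliage of 1- to 4-leaf plants, using a surfactant-containing non-phytotoxic solvent.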

For a further assay, the system named is morningglory. Kind of assay: Test B pre/postemergence morningglory. The class given is in vivo, Ipomoea hederacea. The method in brief: as §1
For another assay, the system named is pigweed. Kind of assay: Test B pre/postemergence pigweed. Format: in vivo, Amaranthus retroflexus. The method in brief:
as §1

The mark [1] stands for this setting: Preemergence, Rate 62 g/ha, scale of 0 to 10 where 0 is no effect and 10 is complete control.
Setting [2] is: Preemergence, Rate 250 g/ha, scale of 0 to 10 where 0 is no effect and 10 is complete control.
Setting [3] is: Preemergence, Rate 500 g/ha, scale of 0 to 10 where 0 is no effect and 10 is complete control.
Setting [4] is: Rate 62 g/ha, Postemergence, scale 0 to 10 (0 no effect, 10 complete control).
[5] abbreviates: Rate 125 g/ha, Postemergence, scale of 0 to 10 where 0 is no effect and 10 is complete control.
[6] abbreviates: Rate 250 g/ha, Postemergence, scale of 0 to 10 where 0 is no effect and 10 is complete control.
The mark [7] stands for this setting: Rate 125 g/ha, Preemergence, scale of 0 to 10 where 0 is no effect and 10 is complete control.
Setting [8] is: Rate 500 g/ha, Postemergence, scale 0 to 10, 0 no effect, 10 complete control.
Setting [9] is: Preemergence, Rate 31 g/ha, visual rating, scale 0 to 10 (0 no effect, 10 complete control).
The mark [10] stands for this setting: Rate 31 g/ha, Postemergence, scale 0 to 10.
[11] abbreviates: Rate 62 g/ha, Postemergence, scale of 0 to 10 where 0 is no effect and 10 is complete control.
Where [12] appears, read: Rate 125 g/ha, Postemergence, scale 0 to 10.
Where [13] appears, read: Postemergence, Rate 250 g/ha, scale 0 to 10.
Setting [14] is: Preemergence, Rate 125 g/ha, scale of 0 to 10 where 0 is no effect and 10 is complete control.
Where [15] appears, read: Preemergence, Rate 250 g/ha, scale 0 to 10, 0 is no effect, 10 is complete control.
The mark [16] stands for this setting: Preemergence, Rate 500 g/ha, scale 0 to 10, 0 is no effect, 10 is complete control.
Setting [17] is: Rate 125 g/ha, Postemergence, scale 0 to 10, 0 is no effect, 10 is complete control.
Where [18] appears, read: Postemergence, Rate 125 g/ha, scale 0 to 10, 0 is no effect, 10 is complete control.
Setting [19] is: Preemergence, Rate 62 g/ha, scale 0 to 10 (0 no effect, 10 complete control).
[20] abbreviates: Postemergence, Rate 62 g/ha, scale 0 to 10, 0 is no effect, 10 is complete control.
Setting [21] is: Postemergence, Rate 250 g/ha, scale 0 to 10, 0 no effect, 10 complete control.
[22] abbreviates: Preemergence, Rate 62 g/ha, scale 0 to 10, 0 is no effect, 10 is complete control.
The mark [23] stands for this setting: Preemergence, Rate 125 g/ha, scale 0 to 10 (0 no effect, 10 complete control).
[24] abbreviates: Preemergence, Rate 500 g/ha, scale 0 (no effect) to 10 (complete control).
Setting [25] is: Rate 125 g/ha, Postemergence, scale 0 to 10, 0 no effect, 10 complete control.
The mark [26] stands for this setting: Rate 500 g/ha, Postemergence, 0 to 10 scale (0 no effect, 10 complete control).

In the case of `CC(C)N(C(=O)n1oc(=O)n(C2CCCCO2)c1=O)c1ccc(F)cc1` (stereo not shown) [Compound 311], the “Giant foxtail plant response rating” value in the assay with giant foxtail (setting [1]), with giant foxtail (setting [2]), in the assay with giant foxtail (setting [3]), in the assay with giant foxtail (setting [4]) and in the assay with giant foxtail (setting [5]) was 0 in each case. Further, in the assay on giant foxtail (Preemergence, Rate 125 g/ha), the “Giant foxtail plant response rating (0 to 10 scale)” value was found to be 0. For the same compound, in the assay on giant foxtail (setting [6]), the “Plant response rating, Giant foxtail” value worked out at 0. The “Morningglory plant response rating” value is recorded as 0 in the assay on morningglory (setting [1]); 0 with morningglory (setting [2]); 0 in the assay with morningglory (setting [3]); 0 with morningglory (setting [4]); 4 with morningglory (setting [5]). The “Morningglory plant response rating (0 to 10 scale)” value in the assay with morningglory (Preemergence, Rate 125 g/ha) amounted to 0. Besides, the “Plant response rating, Morningglory” value in the assay on morningglory (setting [6]) was found to be 8. Moreover, the “Redroot pigweed plant response rating” value in the assay with pigweed (setting [1]), with pigweed (setting [2]), with pigweed (setting [3]), with pigweed (setting [4]) and with pigweed (setting [5]) was 0 each time. For the same compound, in the assay on pigweed (Preemergence, Rate 125 g/ha), the “Redroot pigweed plant response rating (0 to 10 scale)” value is listed as 0. Besides, the “Plant response rating, Redroot pigweed” value in the assay with pigweed (setting [6]) was 0.
Consider `Cc1ccccc1-n1c(=O)on(C(=O)N(c2ccc(C(C)(C)C)cc2)C(C)C)c1=O` [Compound 270], for which the “Giant foxtail plant response rating” value in the assay on giant foxtail (setting [1]), with giant foxtail (setting [2]), in the assay with giant foxtail (setting [5]), with giant foxtail (setting [7]) and in the assay with giant foxtail (setting [8]) was 0 in each case. Also, the “Plant response rating, Giant foxtail” value in the assay with giant foxtail (setting [3]) and with giant foxtail (setting [6]) was 0 throughout. Also, the “Morningglory plant response rating” value in the assay with morningglory (setting [1]), in the assay with morningglory (setting [2]), with morningglory (setting [5]), in the assay with morningglory (setting [7]) and in the assay on morningglory (setting [8]) was 0 throughout. In addition, the “Plant response rating, Morningglory” value in the assay with morningglory (setting [3]) and in the assay on morningglory (setting [6]) was 0 each time. Besides, the “Redroot pigweed plant response rating” value in the assay with pigweed (setting [1]), in the assay on pigweed (setting [2]), in the assay with pigweed (setting [5]), in the assay on pigweed (setting [7]) and with pigweed (setting [8]) was 0 each time. For the same compound, the “Plant response rating, Redroot pigweed” value in the assay with pigweed (setting [3]) and in the assay on pigweed (setting [6]) was 0 in each case.
For the compound `CCCCn1c(=O)on(C(=O)N(c2ccc(F)cc2)C(C)C)c1=O` [Compound 221], the “Giant foxtail plant response rating” value was found to be 5 in the assay on giant foxtail (setting [9]); 5 in the assay with giant foxtail (setting [1]); 10 in the assay on giant foxtail (setting [2]); 0 in the assay with giant foxtail (setting [10]); 2 in the assay with giant foxtail (setting [11]); 7 in the assay with giant foxtail (setting [12]). The “Giant foxtail plant response rating” value in the assay with giant foxtail (setting [7]) worked out at 9. The “Plant response rating (0 to 10; 0 is no effect, 10 is complete control), Giant foxtail” value in the assay on giant foxtail (Rate 250 g/ha, Postemergence) was 7. For the same compound, the “Morningglory plant response rating” value with morningglory (setting [9]), in the assay with morningglory (setting [1]), in the assay with morningglory (setting [2]), in the assay on morningglory (setting [10]), with morningglory (setting [11]) and in the assay on morningglory (setting [12]) was 0 throughout. In addition, the “Morningglory plant response rating” value in the assay with morningglory (setting [7]) was found to be 0. Moreover, the “Plant response rating (0 to 10; 0 is no effect, 10 is complete control), Morningglory” value with morningglory (Rate 250 g/ha, Postemergence) turned out to be 0. The “Redroot pigweed plant response rating” value with pigweed (setting [9]) is recorded as 7; with pigweed (setting [1]), 9; in the assay on pigweed (setting [2]) it was 10; with pigweed (setting [10]), 2; in the assay with pigweed (setting [11]) it was 6; with pigweed (setting [12]) it was 8. Further, the “Redroot pigweed plant response rating” value in the assay with pigweed (setting [7]) was found to be 10. In addition, the “Plant response rating (0 to 10; 0 is no effect, 10 is complete control), Redroot pigweed” value in the assay on pigweed (Rate 250 g/ha, Postemergence) is given as 8.
On to `CC(C)N(C(=O)n1oc(=O)n(CCCl)c1=O)c1ccc(Cl)cc1` [Compound 474], for which the “Giant foxtail plant response rating” value is on record as 7 with giant foxtail (setting [13]); 8 in the assay on giant foxtail (Postemergence, Rate 500 g/ha, scale of 0 to 10 where 0 is no effect and 10 is complete control); 10 in the assay with giant foxtail (setting [15]); 10 in the assay on giant foxtail (setting [16]); 3 in the assay with giant foxtail (setting [4]); 6 in the assay with giant foxtail (setting [17]). Besides, the “Plant response rating, Giant foxtail” value with giant foxtail (setting [1]) was determined as 7; with giant foxtail (setting [14]), 10. The “Morningglory plant response rating” value with morningglory (setting [13]) worked out at 1; with morningglory (setting [15]), 0; in the assay with morningglory (setting [16]) it was 0; in the assay on morningglory (setting [4]) it was 1; with morningglory (setting [17]), 1. The “Plant response rating, Morningglory” value with morningglory (setting [1]) and in the assay on morningglory (setting [14]) was 0 in each case. Also, the “Redroot pigweed plant response rating” value in the assay on pigweed (setting [13]) was found to be 2; in the assay with pigweed (setting [15]) it was 5; in the assay with pigweed (setting [16]), 7; in the assay on pigweed (setting [4]), 0; with pigweed (setting [17]), 1. Further, the “Plant response rating, Redroot pigweed” value is on record as 1 with pigweed (setting [1]) and 3 with pigweed (setting [14]).
As to `CC(C)N(C(=O)n1oc(=O)n(C2CCC2)c1=O)c1ccc(Cl)cc1` [Compound 349], the “Plant response rating, Giant foxtail” value in the assay with giant foxtail (setting [18]) turned out to be 0; with giant foxtail (setting [19]), 8; with giant foxtail (setting [8]) it was 9. In addition, the “Giant foxtail plant response rating (0 to 10 scale)” value in the assay with giant foxtail (Preemergence, Rate 125 g/ha) amounted to 9. The “Giant foxtail plant response rating” value came to 10 in the assay on giant foxtail (setting [2]), 10 in the assay on giant foxtail (setting [3]) and 0 in the assay on giant foxtail (setting [11]). Further, the “Plant response rating, Morningglory” value came out at 5 in the assay on morningglory (setting [18]), 0 with morningglory (setting [19]) and 10 with morningglory (setting [8]). In the assay on morningglory (Preemergence, Rate 125 g/ha), the “Morningglory plant response rating (0 to 10 scale)” value is 0. Further, the “Morningglory plant response rating” value in the assay on morningglory (setting [2]) was 0; with morningglory (setting [3]), 0; in the assay with morningglory (setting [11]) it was 5. The “Plant response rating, Redroot pigweed” value with pigweed (setting [18]) was 2; in the assay on pigweed (setting [19]), 0; with pigweed (setting [8]) it was 4. Besides, the “Redroot pigweed plant response rating (0 to 10 scale)” value in the assay with pigweed (Preemergence, Rate 125 g/ha) is 0. Also, the “Redroot pigweed plant response rating” value with pigweed (setting [2]) worked out at 2; in the assay with pigweed (setting [3]), 7; in the assay with pigweed (setting [11]), 0.
For `Cc1ccccc1-n1c(=O)on(C(=O)N(c2ccc(Cl)cc2)C(C)C)c1=O` [Compound 41], the “Giant foxtail plant response rating” value with giant foxtail (setting [20]) was 0; with giant foxtail (setting [21]), 1; with giant foxtail (setting [24]) it was 10; in the assay on giant foxtail (setting [25]) it was 0; with giant foxtail (setting [26]), 1. Further, the results for the “Plant response rating, Giant foxtail” value with giant foxtail (setting [22]), in the assay with giant foxtail (setting [23]) and with giant foxtail (setting [2]) were 4, 9 and 10, respectively. Further, the “Morningglory plant response rating” value with morningglory (setting [20]) was 1; with morningglory (setting [21]), 2; with morningglory (setting [24]), 0; in the assay on morningglory (setting [25]) it was 2; in the assay with morningglory (setting [26]) it was 6. Besides, the “Plant response rating, Morningglory” value in the assay with morningglory (setting [22]), in the assay on morningglory (setting [23]) and with morningglory (setting [2]) was 0 throughout. The “Redroot pigweed plant response rating” value stood at 0 in the assay with pigweed (setting [20]); 3 in the assay on pigweed (setting [21]); 7 with pigweed (setting [24]); 0 in the assay on pigweed (setting [25]); 5 with pigweed (setting [26]). Moreover, the entries for the “Plant response rating, Redroot pigweed” value with pigweed (setting [22]), in the assay on pigweed (setting [23]) and in the assay with pigweed (setting [2]) were 0, 1 and 1, respectively.
